In US20200399329A1, “ANTIMICROBIAL PEPTIDES” (priority 2015, published 2020):
Converted amounts (≈) assume the structure as drawn. Where a SMILES comes first, the peptide text is derived from it. Bridges are numbered along the chain shown (N, C = ends).

How the values were obtained:
E. coli CR BAA-2452 = format: cell-based, Escherichia coli
Protocol: (§1) In order to determine the MIC values of the peptides, growth and inhibition of various bacteria were monitored after treatment with the peptides of the invention (Table B). E. coli, K. pneumoniae, P. aeruginosa and Salmonella bacteria were cultured at 37° C. and at 5×10^6 CFU/ml in a standard 96-well-plate, in Mueller Hinton broth. […] The growth of the bacteria was continuously monitored via spectrophotometry at a wave-length of 625 nm. As bacterial growth progresses, Optical density at 625 nm (OD625 nm) values increase, and where the bacterial growth is inhibited, OD625 nm values remain constant. The experimental system and parameters described herein were used to determine the MIC values of OMN3, OMN5, OMN8 and OMN9 on various bacteria strains (Table B). Using the standard MHB MIC testing for antibiotic activity

E. coli ESBL BAA-198 = format: cell-based, Escherichia coli
Protocol: as §1

[1] = test system: E. coli Sens. 25922 QC strain; format: cell-based, Escherichia coli
Protocol: as §1

[2] = test system: K. pneu Sens. 700603 QC strain; format: cell-based, K. pneumoniae
Protocol: as §1

K . pneu KPC + BAA-2344 = format: cell-based, Klebsiella pneumoniae
Protocol: as §1

K. pneu NDM1 BAA-2473 = format: cell-based, Klebsiella pneumoniae
Protocol: as §1

P. aeruginosa BAA-2795 = format: cell-based, Pseudomonas aeruginosa
Protocol: as §1

P. aeruginosa BAA-2796 = format: cell-based, Pseudomonas aeruginosa
Protocol: as §1

E. coli strains = format: cell-based
Protocol: as §1

MIC (E. coli CR BAA-2452): 8 µg/mL (≈ 1.93 µM) | MIC (E. coli ESBL BAA-198): 4 µg/mL (≈ 0.963 µM) | MIC [1]: 8 µg/mL (≈ 1.93 µM) | MIC [2]: 32 µg/mL (≈ 7.7 µM) | MIC (K . pneu KPC + BAA-2344): 64 µg/mL (≈ 15.4 µM) | MIC (K. pneu NDM1 BAA-2473): 32 µg/mL (≈ 7.7 µM) | MIC (P. aeruginosa BAA-2795): 64 µg/mL (≈ 15.4 µM) | MIC (P. aeruginosa BAA-2796): 64 µg/mL (≈ 15.4 µM) | MIC for E. coli strains (E. coli strains): 4 to 8 µg/mL
SMILES: CC[C@H](C)[C@@H]1NC(=O)CNC(=O)[C@H](CC(N)=O)NC(=O)[C@H](CCCNC(=N)N)NC(=O)[C@H]([C@@H](C)CC)NC(=O)[C@H](CC(N)=O)NC(=O)[C@H](CCCNC(=N)N)NC(=O)CNC(=O)[C@H](C(C)C)NC(=O)[C@H](CCCCN)NC(=O)[C@H](CCC(=O)O)NC(=O)[C@H]([C@@H](C)CC)NC(=O)[C@H](CCCCN)NC(=O)[C@H](CCCCN)NC(=O)[C@H](Cc2ccccc2)NC(=O)[C@H]([C@@H](C)CC)NC(=O)[C@H](CCCCN)NC(=O)[C@H](Cc2c[nH]c3ccccc23)NC(=O)[C@H](CCCCN)NC(=O)[C@@H](NC(=O)[C@@H](N)CCSC)CSSC[C@@H](C(=O)O)NC(=O)[C@H](CC(C)C)NC(=O)[C@H](C)NC(=O)[C@H](CCCCN)NC(=O)[C@H](C)NC(=O)[C@H](CCC(=O)O)NC(=O)CNC(=O)[C@H](CC(C)C)NC(=O)[C@H](C(C)C)NC(=O)[C@H](C)NC(=O)[C@H](C(C)C)NC(=O)[C@H](C)NC(=O)[C@@H]2CCCN2C(=O)CNC(=O)[C@H](C)NC(=O)[C@H](CCCCN)NC(=O)[C@H]([C@@H](C)CC)NC1=O [OMN9] (H-MCKWKIFKKIEKVGRNIRNGIIKAGPAVAVLGEAKALC-OH; disulfide 2-38; N-terminus and C-terminus assumed)
